The source of these data is patent US20110288036A1, “Methods for Treating or Preventing Vascular Graft Failure” (priority 2010, published 2011).

The target in the experiment is MKK3 (Homo sapiens, UniProt P46734). In words: MKK3 kinase activity (data not shown). The conditions noted are these: at concentration inhibiting greater than 95% of MK2 activity. In kind it is biochemical. The text has this:
A commercial radiometric assay service was used to test the specificity and potency of MMI-0100 ([…]; SEQ ID NO: 1) by measuring its half maximal inhibitory concentrations (IC50). This quantitative assay measures how much MK2 inhibitor (MMI-0100; […] (SEQ ID NO: 1)) is needed to inhibit 50% of a given biological process or component of a process (i.e., an enzyme, cell, or cell receptor). Specifically, in these assays, a positively charged substrate is phosphorylated with a radiolabeled phosphate group from an ATP if the kinase is not inhibited by an inhibitor peptide. The positively charged substrate then is attracted to a negatively charged filter membrane, quantified with a scintillation counter, and compared to a 100% activity control. ATP concentrations within 15 μM of the apparent Km for ATP were chosen since an ATP concentration near the Km may allow for the kinases to have the same relative amount of phosphorylation activity. […]
IC50 values for inhibitor peptides were determined using Millipore's IC50 Profiler Express service. […]
In order to determine the level of specificity for inhibiting MK2, the effect of MMI-0100 ([…]; SEQ ID NO: 1) on other kinases within the MAPK family and within the p38MAPK pathway was evaluated at concentrations of MMI-0100 ([…]; SEQ ID NO: 1) that inhibit greater than 95% of MK2 activity in vitro. […]

Sequence of MKK3 (P46734 whole entry, species assumed): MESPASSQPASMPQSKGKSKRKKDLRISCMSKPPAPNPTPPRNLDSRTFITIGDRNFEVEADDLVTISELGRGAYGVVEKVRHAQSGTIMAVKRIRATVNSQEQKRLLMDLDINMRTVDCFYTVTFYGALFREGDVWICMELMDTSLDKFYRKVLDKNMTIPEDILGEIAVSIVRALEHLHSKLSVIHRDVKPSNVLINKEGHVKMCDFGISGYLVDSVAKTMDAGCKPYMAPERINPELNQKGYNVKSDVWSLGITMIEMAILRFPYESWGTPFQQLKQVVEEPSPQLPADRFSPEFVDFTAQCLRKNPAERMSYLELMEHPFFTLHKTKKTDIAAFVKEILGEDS

For the sequence YARAAARQARAKALARQLGVAA [MMI-0100], the MKK3 activity entry was “no reduction”.
